pEC50: −log10 of the molar value. Values after ≈ are worked out from the molar mass of the structure shown.
Legend:
[1] = Upregulation of utrophin transcription in mouse H2K cells after 48 hrs by luciferase reporter assay; type: functional, cell-based
[2] = Aqueous solubility of the compound in 0.01 M phosphate buffered saline at pH 7.4 after 2 hrs by turbidimetric method; type: physicochemical
[3] = Half life in human liver microsome by LC-MS/MS analysis; type: ADME; details: liver microsomes
[4] = Upregulation of utrophin mRNA expression in mouse H2K cells after 72 hrs by RT-PCR analysis relative to control; type: functional, cell-based
[5] = Upregulation of utrophin transcription in mouse H2K cells at 3 uM after 48 hrs by luciferase reporter assay relative to 2-(4-(diethylamino)phenyl)-6-methyl-2H-benzo[d][1,2,3]triazol-5-amine; type: functional, cell-based
[6] = Upregulation of utrophin transcription in mouse H2K cells at 10 uM after 48 hrs by luciferase reporter assay relative to 2-(4-(diethylamino)phenyl)-6-methyl-2H-benzo[d][1,2,3]triazol-5-amine; type: functional, cell-based

Row | SMILES | pEC50 [1] | further results
1 | CCS(=O)(=O)c1ccc2cn(-c3ccc(Cl)cc3)nc2c1 | < 4.52 | –
2 | CC(C)C(=O)Nc1ccc2nn(-c3ccc(Cl)c(Cl)c3)nc2c1 | – | Activity [5]: 87%
3 | Nc1ccc2nn(-c3ccc(Cl)cc3)nc2c1 | < 4.52 | –
4 | CCS(=O)(=O)c1ccc2nn(-c3ccc4ccccc4c3)nc2c1 | – | Activity [5]: 73%
5 | Cc1cc2nn(-c3ccc(Cl)cc3)nc2cc1NC(=O)C(C)C | < 4.52 | –
6 | CS(=O)(=O)c1ccc2nn(-c3ccc4ccccc4c3)nc2c1 | – | Activity [5]: 63%
7 | CC(C)S(=O)(=O)c1ccc2cn(-c3ccc(Cl)cc3)nc2c1 | – | Activity [6]: 54%
8 | CCN(CC)c1ccc(-n2nc3cc(C)c(NC(=O)c4ccco4)cc3n2)cc1 | < 4.52 | –
9 | CCS(=O)(=O)c1ccc2nn(-c3ccc(Cl)c(Cl)c3)nc2c1 | – | Activity [6]: 52%

Further lines, with some results ahead:

Row | pEC50 [1] | SMILES | further results
10 | < 4.52 | CCS(=O)(=O)c1ccc2nn(-c3ccc(Cl)cc3)nc2c1 | –
11 | 6.15 | CCN(CC)c1ccc(-n2nc3ccc(N)cc3n2)cc1 | –
12 | 5.74 | CC(=O)Nc1ccc2nn(-c3ccc(Cl)cc3)nc2c1 | –
13 | 5.74 | CCS(=O)(=O)c1ccc2oc(-c3ccc4ccccc4c3)nc2c1 [EZUTROMID] | –
14 | < 4.52 | CCN(CC)c1ccc(-n2nc3cc(C)c(NC(=O)C(C)C)cc3n2)cc1 | –
15 | < 4.52 | CS(=O)(=O)c1ccc2cn(-c3ccc(Cl)cc3)nc2c1 | –
16 | < 4.52 | CCC(=O)Nc1cc2nn(-c3ccc(N(CC)CC)cc3)nc2cc1C | –
17 | 5.76 | CC(C)C(=O)Nc1ccc2cn(-c3ccc(Cl)cc3)nc2c1 | solubility kinetic at 2 h [2]: 3 µM (≈ 0.941 µg/mL); half-life [3]: 3.3 h; Activity [4]: 138%
18 | 5.51 | Cc1cc2nn(-c3ccc(Cl)cc3)nc2cc1NC(=O)c1cccnc1 | –
19 | 6.12 | CC(C)C(=O)Nc1ccc2nn(-c3ccc(Cl)cc3)nc2c1 | solubility kinetic at 2 h [2]: 1 µM (≈ 0.315 µg/mL); half-life [3]: 4.85 h
20 | 4.93 | CS(=O)(=O)c1ccc2nn(-c3ccc(Cl)cc3)nc2c1 | –
